Columns and labels:
Assay type in all cases: in vivo
[1] = Taste profile by calibrated taste panel at concentrations equisweet to 3% sucrose; settings: 0- to 5-point scale
Procedure: The overall taste profile achieved with the sweetening composition of the present invention was evaluated and compared with the target taste profile of sucrose.
For this assay, all samples were evaluated at the same sweetness level, so each sample was used at a concentration which was equisweet to 3% sucrose. For each sample, the following parameters were evaluated: • Time to first sweetness detection • Time to maximum sweetness • Lingering (time for the sweetness to disappear) • Off-flavour: menthol, liquorice (any tastes that are different from sweetness) • Mouthfeel (density, i.e., the perceived viscosity in the mouth)
These evaluations were carried out by a calibrated taste panel, and conducted at room temperature.
Each of those parameters was evaluated on a 0- to 5-point scale. The values for sucrose were the reference, and were considered the target to emulate.

[2] = Masking bitterness of quinine, test panel, equibitter solution; settings: 250 ppm quinine
Procedure: The bitter masking effect against quinine was assayed, following an analogous procedure to the one used in Example 10 for paracetamol.
The following substances were assayed: NHDC alone, beta-cyclodextrin alone, a composition comprising NHDC and beta-cyclodextrin in a molar ratio 1:1 (Example F) and a composition comprising NHDC and beta-cyclodextrin in a molar ratio 1:3 (Example G).
Analogously to Example 10, several aqueous solutions were prepared, each containing 250 ppm of quinine and different concentrations of the tested substance, namely, 5, 25, 50, 75 and 100 ppm. For each tested solution, a test panel determined the equibitter quinine solution, and the masking effect was calculated using a formula analogous to formula III (substituting 5000 with […]).
The masking synergies between beta-cyclodextrin and NHDC in Examples F and G were calculated following an analogous procedure to the one disclosed in Example 10. Therefore, using the molecular weight of each component, the amounts of beta-cyclodextrin and NHDC contained in each amount of the combinations of Examples F and G were calculated and, then, the antibittering contribution of each component was calculated on the basis of the data of Table 19. The expected masking effect was calculated as the sum of the contributions of each component, and, finally, the masking synergy was calculated (using Formula IV).

[3] = Sweetening synergy sensory test: concentration equisweet to sucrose reference solutions in water, expert panel; settings: for Relative sweetening power: ratio sucrose concentration / equisweet concentration; for Equisweet concentration: room temperature
Procedure: A sensory test was performed to assess the sweetening synergism achieved with the composition of the invention (Examples A and B), and this effect was also compared to the effect obtained with analogous compositions containing beta-cyclodextrin (Comparative Examples A and B). Further compositions of the present invention (Examples C, D and E) were also assessed in this sensory test.
A group of expert panellists in sweet descriptors evaluated the sweetness of the different compositions as well as that of the ingredients NHDC, beta-cyclodextrin and gamma-cyclodextrin used alone.
Each evaluated sweetening agent was dissolved in water at different concentrations, at room temperature. The panel then determined, for each product, the concentration that was equisweet to the reference solutions of 1% and 3% sucrose in water. The results are summarized in Table 3 (Examples A and B are abbreviated as Ex. A and Ex. B, respectively, and the Comparative Examples A and B are abbreviated as Comp. A and Comp. B, respectively).
Since beta- and gamma-cyclodextrins are also sweet compounds, the equisweet concentrations of both cyclodextrins were also determined by the test panel to assess their possible contribution to the sweetness of the composition. […] Therefore, as the equisweet concentrations of both cyclodextrins are at least three orders of magnitude larger than those of NHDC, it was concluded that their contribution to the sweetness was negligible.
A more quantitative evaluation of the sweetness synergy provided by the compositions of the present invention was performed by comparing the real measured sweetness of the compositions comprising gamma-cyclodextrin and NHDC with the theoretical sweetness expected from the sum of the individual contribution of each component in the composition.
To this end, the relative sweetening power of each component was first calculated. For comparative purposes, the relative sweetening power of beta-cyclodextrin was also calculated. The relative sweetening power of a given compound, at a given sweetness level, indicates how many times sweeter this compound is than sucrose. It is therefore calculated as the ratio between the concentration of sucrose and the equisweet concentration of each ingredient, for each sweetness level.
From the relative sweetening power of each ingredient, it is possible to calculate the expected sweetness (sucrose equivalence) of a blend of those ingredients, according to Formula I:
Expected sweetness (sucrose equivalence) of a blend C1+C2=Concentration of compound C1×relative sweetening power of compound C1+Concentration of compound C2×relative sweetening power of compound C2
Then, the sweetness synergy of a blend of components can be calculated according to Formula II: […]
As disclosed above in Example 3, the relative sweetening power of a given compound, at a given sweetness level, indicates how many times sweeter than sucrose the compound is, and the value is calculated as the ratio between the concentration of sucrose and the equisweet concentration of the compound.

[4] = Masking bitterness of paracetamol, calibrated test panel, equibitter solution; settings: 5000 ppm paracetamol
Procedure: The bitter masking effect against paracetamol was assayed. The anti-bittering effect was measured as a dose-response profile vs. a solution of paracetamol.
The following substances were assayed: NHDC alone, gamma-cyclodextrin alone and compositions comprising NHDC and gamma-cyclodextrin in a molar ratio 1:3 (Example B), 1.5:1 (Example C), 1:6 (Example D) and 1:10 (Example E).
For evaluating the masking effect of each substance, several aqueous solutions were prepared, each containing 5000 ppm of paracetamol and different concentrations of the tested substance, namely, 5, 25, 50, 75 and 100 ppm.
A calibrated test panel compared each solution with several solutions of paracetamol in water at different concentrations, and determined the equibitter paracetamol solution. The equibitter solution was calculated as the average of all the evaluations of the panel.
The masking effect was then calculated from the reference amount of paracetamol contained in each tested solution (5000 ppm) and the amount of paracetamol in the equibitter solution, using the following formula (Formula III): […]
For calculating the masking synergies between gamma-cyclodextrin and NHDC, first, for each amount of the combination (Examples A-E), using the molecular weight of each component, the amounts of gamma-cyclodextrin and NHDC contained therein were calculated. For example, 100 ppm of Example B contain 13.61 ppm of NHDC and 86.39 ppm of gamma-cyclodextrin. Then, the antibittering contribution of each component in the composition was calculated, on the basis of the data of Table 13. For example, 13.61 ppm of NHDC provide 9.44% masking effect and 86.39 ppm of gamma-cyclodextrin provide 5.46% masking effect (the antibittering effects for each specific concentration was calculated by interpolation of the data points in Table 13). Therefore, the expected masking effect is calculated as the sum of the contributions of each component. For example, the expected masking effect of 100 ppm of Example B is 14.90 (i.e., 9.44 plus 5.46).
Finally, the masking synergy is calculated using Formula IV: […]
The masking effect of Examples C (NHDC:gCD 1.5:1), D (NHDC:gCD 1:6) and E (NHDC:gCD 1:10) was also evaluated. Aqueous solutions were prepared, each one of them containing 5000 ppm of paracetamol and different concentrations of each one of the tested formulations Ex. C-E, namely, 25 and 50 ppm. Results are disclosed in Tables 15 to 17.

[5] = equisweet to 1% sucrose in water
[6] = equisweet to 3% sucrose in water

Compound	Lingering [1]	Mouthfeel (density) [1]	Off-flavour: menthol, licorice [1]	Time to first sweetness [1]	Time to maximum sweetness [1]	Total sweetness [1]	Masking effect (real) ([2]; tested substance 5 ppm) [%]	Masking effect (real) ([2]; tested substance 25 ppm) [%]	Masking effect (real) ([2]; tested substance 50 ppm) [%]	Masking effect (real) ([2]; tested substance 75 ppm) [%]	Masking effect (real) ([2]; tested substance 100 ppm) [%]	Relative sweetening power ([3]; 1% sucrose level)	Relative sweetening power ([3]; 3% sucrose level)	Equisweet concentration [3, 5] [ppm]	Equisweet concentration [3, 6] [ppm]	Masking effect (real) ([4]; tested substance 5 ppm) [%]	Masking effect (real) ([4]; tested substance 25 ppm) [%]	Masking effect (real) ([4]; tested substance 50 ppm) [%]	Masking effect (real) ([4]; tested substance 75 ppm) [%]	Masking effect (real) ([4]; tested substance 100 ppm) [%]
OC[C@H]1O[C@@](CO)(O[C@H]2O[C@H](CO)[C@@H](O)[C@H](O)[C@H]2O)[C@@H](O)[C@@H]1O [Sucrose, sucrose]	2.00	4.00	0.00	1.00	2.00	5.00	–	–	–	–	–	–	–	–	–	–	–	–	–	–
OC[C@H]1O[C@@H]2O[C@H]3[C@H](O)[C@@H](O)[C@@H](O[C@H]4[C@H](O)[C@@H](O)[C@@H](O[C@H]5[C@H](O)[C@@H](O)[C@@H](O[C@H]6[C@H](O)[C@@H](O)[C@@H](O[C@H]7[C@H](O)[C@@H](O)[C@@H](O[C@H]8[C@H](O)[C@@H](O)[C@@H](O[C@H]1[C@H](O)[C@H]2O)O[C@@H]8CO)O[C@@H]7CO)O[C@@H]6CO)O[C@@H]5CO)O[C@@H]4CO)O[C@@H]3CO [bCD, Beta-Cyclodextrin]	–	–	–	–	–	–	0.00	6.67	11.67	16.67	13.33	0.8333	0.4286	12000	70000	–	–	–	–	–
OC[C@H]1O[C@@H]2O[C@H]3[C@H](O)[C@@H](O)[C@@H](O[C@H]4[C@H](O)[C@@H](O)[C@@H](O[C@H]5[C@H](O)[C@@H](O)[C@@H](O[C@H]6[C@H](O)[C@@H](O)[C@@H](O[C@H]7[C@H](O)[C@@H](O)[C@@H](O[C@H]8[C@H](O)[C@@H](O)[C@@H](O[C@H]9[C@H](O)[C@@H](O)[C@@H](O[C@H]1[C@H](O)[C@H]2O)O[C@@H]9CO)O[C@@H]8CO)O[C@@H]7CO)O[C@@H]6CO)O[C@@H]5CO)O[C@@H]4CO)O[C@@H]3CO [gCD, gamma-cyclodextrin]	–	–	–	–	–	–	–	–	–	–	–	0.4000	0.3529	25000	85000	1.00	2.00	4.00	5.00	6.00

— patent US20230054887A1, “SWEETENING AND TASTE-MASKING COMPOSITIONS, PRODUCTS AND USES THEREOF” (HEALTHTECH BIO ACTIVES, S.L.U., priority 2017, published 2023)
